Laboratory results taken from patent publication US8278309B2, “Synthetic mimetics of host defense and uses thereof” (priority 2008, dated 2012).
Structures can show the parent of a compound that is named as a salt.

Tests used:
Entero. faecalis = assay: MIC broth microdilution, Gram-positive clinical isolates; type: cell-based; details: Enterococcus faecalis; Entero. faecalis; 2-3 isolates/organism; read-out: MIC
Method: (§1) Compound A was evaluated in vitro in accordance with defined CLSI documents specific to the organisms (aerobic, anaerobic or yeast) tested in this study. Ampicillin, ceftazidime, cefuroxime, ciprofloxacin, linezolid, and vancomycin were tested alongside as comparator agents for aerobic bacteria; clindamycin and metronidazole were tested as comparators for anaerobes; fluconazole was tested as a comparator for yeast isolates. Stock solutions of Compound A were prepared in dimethyl sulfoxide (DMSO). Ampicillin, ceftazidime, cefuroxime, ciprofloxacin, linezolid, vancomycin, metronidazole, clindamycin, and fluconazole were prepared each according to its manufacturer's guideline.
(§2) Minimum inhibitory concentrations (MICs) in μg/ml were determined according to CLSI guideline M7-A7 by broth microdilution. All aerobes were tested using Mueller-Hinton broth medium with the exception of Streptococcus spp., which were tested using cation-adjusted Mueller-Hinton broth supplemented with 2-5% lysed horse blood.

Entero. faecium (VRE) = assay: as above; type: cell-based; details: Enterococcus faecium; Entero. faecium (VRE); 2-3 isolates/organism; read-out: MIC
Method: as §1, §2

Staph. aureus (MRSA) = assay: as above; type: cell-based; details: Staphylococcus aureus; Staph. aureus (MRSA); 2-3 isolates/organism; read-out: MIC
Method: as §1, §2

Staph. saprophyticus = assay: as above; type: cell-based; details: Staphylococcus saprophyticus; Staph. saprophyticus; 2-3 isolates/organism; read-out: MIC
Method: as §1, §2

Staph. spidermidis = assay: as above; type: cell-based; details: Staph. spidermidis; 2-3 isolates/organism; read-out: MIC
Method: as §1, §2

Staph. spp. (coagulase−) = assay: as above; type: cell-based; details: Staph. spp. (coagulase−); 2-3 isolates/organism; read-out: MIC
Method: as §1, §2

Strept. agalactiae = assay: as above; type: cell-based; details: Streptococcus agalactiae; Strept. agalactiae; 2-3 isolates/organism; read-out: MIC
Method: as §1, §2

Strept. pneumoniae = assay: as above; type: cell-based; details: Streptococcus pneumoniae; Strept. pneumoniae; 2-3 isolates/organism; read-out: MIC
Method: as §1, §2

Strept. pyogenes = assay: as above; type: cell-based; details: Streptococcus pyogenes; Strept. pyogenes; 2-3 isolates/organism; read-out: MIC
Method: as §1, §2

Strept. viridians = assay: as above; type: cell-based; details: Strept. viridians; 2-3 isolates/organism; read-out: MIC
Method: as §1, §2

Acinetobacter spp. = assay: MIC broth microdilution, Gram-negative clinical isolates; type: cell-based; details: 2-3 isolates/organism
Method: as §1, §2

Citrobacter koseri = assay: as above; type: cell-based; details: 2-3 isolates/organism, read-out: MIC
Method: as §1, §2

Enterobacter cloacae = assay: as above; type: cell-based; details: 2-3 isolates/organism, read-out: MIC
Method: as §1, §2

Haemophilus influenzae = assay: as above; type: cell-based; details: 2-3 isolates/organism, read-out: MIC
Method: as §1, §2

Providencia stuartii = assay: as above; type: cell-based; details: 2-3 isolates/organism, read-out: MIC
Method: as §1, §2

[1] = Hemolysis assay using human erythrocytes; type: cell-based; details: human, pH 7.4
Method: (§3) Pooled whole human blood was centrifuged to separate the red blood cells (RBC). The isolated RBCs were rinsed and diluted in Tris-buffered saline (TBS buffer, pH 7.4) to obtain a 0.22% RBC stock suspension. 5 μL of Compound A stock solution was added to 45 μL of RBC suspension and incubated with shaking for 1 hour at 37° C. At the conclusion of the incubation time, samples were centrifuged and 30 μL of the supernatant was added to 100 μL of water. OD414 measurements were read for hemoglobin concentration. […] EC50 values were determined as described above.

[2] = test system: human erythrocytes (RBCs); assay: Hemolysis assay using human erythrocytes; type: cell-based; details: vs S. aureus MIC
Method: as §3

MSSA 29213 = assay: Mouse thigh burden model against MSSA 29213; type: in vivo
MRSA 33591 = assay: Mouse thigh burden model against MRSA 33591; type: in vivo
MSSA 27660 = assay: Mouse peritonitis/sepsis model against MSSA 27660; type: in vivo
Pharmacokinetics in rats = type: in vivo; details: Crl:CD (SD), plasma, iv; rat, 5 mg/kg, i.v. bolus
Method: Crl:CD (SD) rats were administered Compound A by i.v. bolus injection at the indicated dosages. Plasma was prepared from blood samples taken at 9 time points (n=3) over 28 hours. Compound levels were determine by HPLC-MS/MS. All animals were fitted with two jugular vein cannula (JVC), one each for dose administration and blood collection. Each route of administration was dosed as N=3. Animals were supplied with a commercial rodent diet and water ad libitum. Each rat received a bolus dosed via the appropriate route of administration at time zero on the day of dosing.
Each blood sample was collected from the rats via a JVC and placed into chilled polypropylene tubes containing sodium EDTA as an anticoagulant. Samples were centrifuged at a temperature of 4° C. and at a speed of 13,000 rpm for 5 minutes. Samples were maintained chilled throughout processing. Each plasma sample was then transferred into labeled polypropylene tubes, placed on dry ice, and stored in a freezer set to maintain −60° C. to −80° C.
Plasma study samples were extracted and analyzed using a previously developed method. A single standard curve and six replicates of quality control samples at three concentrations were extracted using DMSO containing 0.1% formic acid. Plasma samples (50 μL) were added to 150 μL solvent and centrifuged. Supernatants were analyzed by LC/MSMS using a Perkin Elmer series 200 micropump and PE Sciex API4000 Electrospray mass spectrometer. Standard curves were prepared at concentrations of 10000, 5000, 1000, 500, 250, 100, 50 and 25 ng/mL. Quality control samples were prepared at concentrations of 5000, 500, and 50 ng/mL. The standard curve and quality control samples were prepared from independently prepared stock solutions. At least ⅝ of standards must have accuracy within ±15%, except at the LLOQ where ±20% is acceptable. Two thirds of the batch QCs must have accuracy within ±15% of nominal, and at least one QC must pass at each level in order for the run to be accepted.
Individual plasma concentration versus time data for Compound A was subjected to non-compartmental analysis using the pharmacokinetic program WinNonlin v4.1. Plasma concentrations below the limit of quantitation (25 ng/ml) were assigned a value of zero for pharmacokinetic analysis. Nominal dosing concentrations were used in all calculations.

in vivo [3] = details: mouse, iv
Method: (§4) Maximum tolerated dose (MTD) determinations were made in ascending/descending dose studies in mice and rats. Compound A was administered by either i.v. bolus injection in the tail vein of mice and rats or by i.v. infusion via catheter in the femoral vein of rats. At each dose, two to three animals were administered compound and clinical signs were recorded over a 4 to 7 day period. Gross necropsy was performed at the conclusion of the study.

in vivo [4] = details: rat, iv
Method: as §4

[5] = Stability in presence of plasma and isolated hepatocytes; details: multiple species

Work on `N=C(N)NCCCCC(=O)Nc1cc(C(F)(F)F)cc(NC(=O)c2cc(C(=O)Nc3cc(C(F)(F)F)cc(NC(=O)CCCCNC(=N)N)c3O[C@H]3CCNC3)ncn2)c1O[C@H]1CCNC1` [Compound A, pyrimidine-4,6-dicarboxylic acid bis-{[3-(5-guanidino-pentanoylamino)-2-((R)-pyrrolidin-3-yloxy)-5-trifluoromethyl-phenyl]-amide}tetrahydrochloride] yielded an MIC (Entero. faecalis) of 1 µg/mL, an MIC (Entero. faecium (VRE)) of 1 µg/mL and an MIC (Staph. aureus (MRSA)) of 0.5 to 1 µg/mL. For the same molecule, the MIC (Staph. saprophyticus) was 0.25 to 0.5 µg/mL, the MIC (Staph. spidermidis) was 0.25 to 0.5 µg/mL and the MIC (Staph. spp. (coagulase−)) was 0.25 to 0.5 µg/mL. It also gave an MIC (Strept. agalactiae) of 2 µg/mL, an MIC (Strept. pneumoniae) of 4 to 8 µg/mL and an MIC (Strept. pyogenes) of 1 to 4 µg/mL. The MIC (Strept. viridians) was 2 to 8 µg/mL, the MIC (Acinetobacter spp.) was 4 µg/mL and the MIC (Citrobacter koseri) was 1 to 2 µg/mL. For the same molecule, the MIC (Enterobacter cloacae) was 0.5 to 4 µg/mL, the MIC (Haemophilus influenzae) was 4 to 8 µg/mL and the MIC (Providencia stuartii) was 16 to 64 µg/mL. The EC50 at 1 h [1] was over 500 µg/mL, the “Selectivity (EC50/MIC) RBCs” value [2] was over 500 and the efficacy in vivo (MSSA 29213) was “efficacious”. The efficacy in vivo (MRSA 33591) was “efficacious”, the efficacy in vivo (MSSA 27660) was “efficacious” and the Cmax (Pharmacokinetics in rats) was 89.2 µg/mL. It also gave a Vd (Pharmacokinetics in rats) of 0.11 L/kg, a clearance (Pharmacokinetics in rats) of 0.467 mL/min/kg and a half-life (Pharmacokinetics in rats) of 3 h. For the same molecule, the MTD (in vivo [3]) was 30 mg/kg, the MTD (in vivo [4]) was over 24 mg/kg and the “stability in the presence of plasma and isolated hepatocytes” value [5] was “stable”.
